Patent US20190282560A1, “1-Methylnicotinamide for the Treatment of Diseases Associated With C-Reactive Protein” (Pharmena S.A., priority 2016, published 2019)

Test system: C-reactive protein
Experiment: Randomized, double-blind, placebo controlled, forced dose-escalation, multicenter study; hs-CRP blood levels
Format: in vivo, human
Text: The study was a randomized, double-blind, placebo controlled, forced dose-escalation, multicenter study.
Inclusion Criteria • Patients were at least 18 years of age and ≤80 years of age at the time of informed consent; • Women of childbearing potential must have a negative urine pregnancy test at screening and visit 4.
Exclusion Criteria • Patients who were pregnant, planning to become pregnant during the study, or nursing • Patients who had with clinically significant electrocardiographic abnormalities at visit 1 or visit 4; • Patients who had body mass index>45 kg/m2 at visit 1; • Patients who had weight change of >5% of initial body weight between visits 1 and 4 (randomization); • Patients who had poorly controlled diabetes defined as a hemoglobin A1c>9.5% prior to visit 4 (randomization); • Patients who had evidence of hepatic disease (ALT or AST greater than 2.0 ULN, bilirubin greater than 1.5 ULN, or cirrhosis) at visit 1; • Patients who had renal dysfunction defined as glomerular filtration rate (GFR)<60 mL/min/1.73 m2 at visit 1; • Patients who had hypothyroidism that was not treated or not stable for at least 6 months prior to study entry; • Patients who had poorly controlled hypertension defined as a mean systolic blood pressure above 160 mm Hg and/or diastolic blood pressure above 100 mmHg at visit 1.
Following signature of informed consent, 164 patients received 1000 mg placebo three times daily with meals in a single-blind manner for a dietary-controlled baseline period of 6 to 8 weeks. From the sample of eligible subjects who completed the 6 to 8 week dietary-controlled baseline period, 71 subjects (22 received placebo and 49 received 1-MNA chloride) meeting all inclusion and no exclusion criteria were randomized in a double-blind manner ([…]) to the treatment arm. The treatment periods were: weeks 1 and 2 two 500 mg tablets administered three times daily with meals (total daily dose 3000 mg); weeks 3 to 14 two 1000 mg tablets administered three times daily with meals (total daily dose 6000 mg). Down titration to 3000 mg daily was allowed in the event that a subject could not tolerate the 6000 mg daily treatment for the stipulated period. Under this scenario, the down-titrated subject remained on the tolerated dose for the duration of the trial. hs-CRP blood levels were evaluated during the baseline period, upon randomization and throughout the active treatment period. All blood samples were collected following a 12-hour fast. Throughout the study, the subjects were required to adhere to a heart-healthy diet and abstain from/minimize ethyl alcohol intake. Safety and tolerability were assessed throughout the trial through the evaluation of physical exams, electrocardiograms, routine hematology ad blood chemistry testing, vital signs and adverse events.
In the analysis, adjusted geometric mean percent change was obtained by exponentiating the adjusted mean from the ANCOVA model, then subtracting 1 and multiplying by 100. Bounds of the 95% confidence intervals were obtained similarly. Based on the ANCOVA model of the change in log-transformed CRP including treatment group and log-transformed baseline value, the change in CRP level in blood in this study was approximately −17% relative to placebo.

[1] = end of study, oral 3000 mg daily weeks 1-2, 6000 mg daily weeks 3 to 14, n 45

## C[n+]1cccc(C(N)=O)c1 [1-MNA chloride, 1-methylnicotinamide]
Baseline to end of study, 3000 then 6000 mg daily, 14 weeks
  Lowering of blood or serum CRP level from baseline: about 16%
Baseline to end of study, ANCOVA on log-transformed CRP, 3000 then 6000 mg daily, 14 weeks
  Adjusted geometric mean percent change from baseline in C-reactive protein: −15.66%
baseline, before double-blind treatment, n 49
  C-reactive protein, Baseline, Geometric mean: 2.9 mg/L
baseline, before double-blind treatment, patients with serum triglycerides 200-500 mg/dL, n 49
  C-reactive protein, Baseline, Mean ± SD: 4.0 ± 5.4 mg/L
[1]
  C-reactive protein, End of study, Geometric mean: 2.4 mg/L
  C-reactive protein, End of study, Mean ± SD: 3.3 ± 3.2 mg/L
Oral 3000 mg daily weeks 1-2, 6000 mg daily weeks 3 to 14, n 45
  C-reactive protein, Change from baseline to end of study, Mean ± SD: -0.8 ± 4.7 mg/L
